Results published in patent US20040029208A1, “Assay method and kit for testing biological material for exposure to stress using biomarkers” (priority 2000, published 2004).

How the values were obtained:
Bellis perennis = experiment: TLC phytochemical changes after Roundup Bio (sensitivity); type: in vivo
Excerpt: (§1) Glyphosate (Roundup Bio (360 g L1:) was supplied by Monsanto Denmark ANS. Recommended field dose =1,44 kg a.i. ha^−1. In all the experiments, an automatic sprayer (designed in Denmark by Jens Kristensen 1994) was used where the herbicide application is achieved by moving boom equipment with two ordinary hydraulic flat fan nozzles (Hardl 4110-16). Two pots per spray event were placed in the middle of the spray chamber at 50 cm distance from the nozzle, delivering 200 L of water per hectare with a desired herbicide concentration (working pressure 2 bars; speed of spray boom=4.7 km h^1). The spraying was performed starting with the lowest concentration first, progressing towards the highest concentration. Between each herbicide, the sprayer was thoroughly rinsed several times with water. The control plants were sprayed with water.
(§2) The study was performed in greenhouse between August and December 1998 for all species. Degree days (=(Present temperature in ° C.-5° C.)×amount of days) were used as time scale. The plants were 226-378 degree days (30 days) old before exposure. The plants were exposed to 0, 1. 10 and 100% of the recommended field dose of Roundup Bio. Before the harvest, the plants were evaluated for visual effects using the rating chart described in Table 1 (Hamit et al., 1977). A rating of zero indicates full growth and vigour (compared with control plants) and a rating of nine, no growth/mortality. The plants were all harvested 180 degree days (14 days) after exposure. The plants were lyophilizied and k pt dry and in dark before phytochemical analysis.
(§3) 250 mg lyophilized plant material was crushed and extracted with 5.00 ml 75% ethanol in water in ultrasonic bath for two hours. Ice was added to the bath every 30 minutes to keep the temperature constant during the extraction. The extracts wer transferred to vials and centrifuged (3000 g per min.) for 10 minut s. The extract was immediately used for phytochemical analysis.
(§4) Frozen or fresh plant material was pressed for plant sap using a hand press. The sap was transferred to vials and centrifuged (3000 g per min.) for 10 minutes. The extract was immediately used for phytochemical analysis.
(§5) Rf-values (defined as, Rf-value=Distance of spot centre from start point/Distance of solvent front from start point (Stahl, 1969)) were determined for all phytochemical compounds.
(§6) In table 2 the sensitivity of the different plant species to Roundup Bio is presented. The sensitivity of the plant species was evaluated on basis of the presence of the most frequent pattern, the lowest concentration of exposure, and the visual effect of the exposed plants. In table 2, the plant species are divided into three groups: Group I: Very sensitive plant species; Group II: Medium sensitive plant species, and Group III: Less sensitive plant species. In Group I, a phytochemical pattern was present in plants exposed to 1% of the recommended field dose of Roundup Bio with a visual effect from 0 to 4. In Group II, a phytochemical pattern was found in plants exposed to 1 to 10% of the recommended field dose of the herbicide with a visual effect from 0 to 5. Finally, Group III presents plant species containing a phytochemical pattern after exposure of 10% of the recommended field dose with a visual effect from 5 to 7.
(§7) Table 2: Sensitivity of plants exposed to glyphosate (Roundup Bio), based on presence of phytochemical changes in all the TLC-Systems at lowest dose of concentration (LC) of the herbicide in percent of field dose. The corresponding visual effect (VE) Is presented (see table 1).

Mentha spicata = experiment: as above; type: in vivo
Excerpt: as §1, §2, §3, §4, §5, §6, §7

Papaver rhoeas = experiment: as above; type: in vivo
Excerpt: as §1, §2, §3, §4, §5, §6, §7

Rudbeckia hirta = experiment: as above; type: in vivo
Excerpt: as §1, §2, §3, §4, §5, §6, §7

Fallopia convolvulus = experiment: as above; type: in vivo
Excerpt: as §1, §2, §3, §4, §5, §6, §7

Leonorus carica = experiment: as above; type: in vivo
Excerpt: as §1, §2, §3, §4, §5, §6, §7

Sinapis avensis = experiment: as above; type: in vivo
Excerpt: as §1, §2, §3, §4, §5, §6, §7

Rumex crispus = experiment: as above; type: in vivo
Excerpt: as §1, §2, §3, §4, §5, §6, §7

Nepeta cataria = experiment: as above; type: in vivo
Excerpt: as §1, §2, §3, §4, §5, §6, §7

Centauréa cýanus = experiment: TLC plant biomarker pattern after herbicide spraying (greenhouse); type: in vivo
white birch seedlings = settings: within 24h of application, even at 1% of field rate; cited from earlier work

SMILES: O=C(O)CNCP(=O)(O)O [Glyphosate]
- LC: lowest dose of concentration of the herbicide with phytochemical changes in all the TLC-Systems (Bellis perennis): 10% of field dose
- LC: lowest dose of concentration of the herbicide with phytochemical changes in all the TLC-Systems (Mentha spicata): 10% of field dose
- LC: lowest dose of concentration of the herbicide with phytochemical changes in all the TLC-Systems (Papaver rhoeas): 1% of field dose
- LC: lowest dose of concentration of the herbicide with phytochemical changes in all the TLC-Systems (Rudbeckia hirta): 1% of field dose
- LC: lowest dose of concentration of the herbicide with phytochemical changes in all the TLC-Systems (Fallopia convolvulus): 1% of field dose
- LC: lowest dose of concentration of the herbicide with phytochemical changes in all the TLC-Systems (Leonorus carica): 10% of field dose
- LC: lowest dose of concentration of the herbicide with phytochemical changes in all the TLC-Systems (Sinapis avensis): 10% of field dose
- LC: lowest dose of concentration of the herbicide with phytochemical changes in all the TLC-Systems (Rumex crispus): 1% of field dose
- LC: lowest dose of concentration of the herbicide with phytochemical changes in all the TLC-Systems (Nepeta cataria): 10% of field dose
- Min. of label dose of herbicide with effect (Centauréa cýanus; TLC 1 (non-specific compounds)): 10%
- Min. of label dose of herbicide with effect (Centauréa cýanus; TLC 6 (lipids and terpens)): 10%
- Min. of label dose of herbicide with effect (Centauréa cýanus; TLC 7 (non-specific compounds)): 10%
- increase of shikimic acid levels (white birch seedlings): 10 fold
